# Patent US20240010589A1, “SUBSTITUTED RESORCINOL COMPOUNDS AS AMPK ACTIVATORS, COMPOSITIONS, METHODS AND USES THEREOF” (SOCIETE DES PRODUITS NESTLE S.A., priority 2020, published 2024)
# Entries after “also recorded” stand apart in the source; their conditions may differ.
# How the values were obtained:
# AMPK = test: pACC HTRF assay (Cisbio) in U-2 OS Flp-In T-REx cells; type: cell-based; conditions: varying concentrations, 30 mins at 37 C, FIG. 1
# Description: Compound 1 increased the phosphorylation of the AMPK substrate, acetyl-CoA carboxylase (ACC), in U-2 OS Flp-In T-REx mammalian cells. U-2 OS cells were treated with varying concentrations of Compound 1 for 30 mins at 37 C. Phosphorylation of ACC was assessed using the HTRF Cisbio (pACC kit). […] U-2 OS Flp-In T-REx cells were seeded at 50 K in a 96-well plate and left overnight at 37 C in DMEM GlutaMAX (Thermo Fisher Scientific) supplemented with 10% (vol/vol) FBS and 100 U/ml penicillin G, and 100 μg/ml streptomycin. Cells were treated for 30 mins with varying concentrations of Compound 1 in media lacking FBS and then cells were lysed in 50 μl of Cisbio lysis buffer #1 supplemented with blocking solution as per the manufacturer's protocol (Cisbio). Cells were lysed for 30 mins at room temperature before 16 μl of lysate was incubated with 4 μl of the HTRF antibodies (1:40 dilution of the acceptor and donor (p)ACC antibodies, as per the manufacturers protocol). Lysates were incubated overnight with the antibodies before the 665 nm/620 nm ratio was determined using a MolecularDevices i3 plate reader (with a HTRF cartridge add-on). […] Phosphorylation of ACC is extensively used as a cellular read-out of AMPK activity.
# [1] = tested on: AMPK containing β1 wild-type (WT) subunit; test: pACC HTRF assay in AMPKβ1/β2 double knockout U-2 OS cells stably expressing β1 WT; type: cell-based, human; conditions: varying concentrations, 30 mins at 37 C, FIG. 2
# Description: (§1) The β1 WT or β1 S108A mutant were stably expressed in […] double knockout cells and were treated with varying concentrations of Compound 1 for 30 mins at 37 C. Phosphorylation of ACC was assessed using the HTRF Cisbio (pACC kit).
# (§2) AMPKβ1/β2 double knockout U-2 OS Flp-In™ T-Rex™ cell lines were generated by Horizon Discovery (Cambridge, UK). Cells were genotyped and analysed by Western blotting to confirm that there was a complete knockout of AMPKβ1/β2. We took these AMPKβ1/β2 double knockout cells, and re-introduced the expression of human β1 wild-type (WT) or a (31 Serine 108 to alanine mutation (S108A). This was achieved using the Flp-In™ system (Invitrogen) present in this cell line and stable cells expressing β1 WT or a β1 S108A mutant were generated according to the manufacturers' protocols. Re-expression of the β1 subunit was confirmed by Western blot analysis.
# (§3) Cells stably expressing β1 WT or a β1 S108A mutant were treated with varying concentrations of Compound 1. Cells lysates were subjected to the pACC HTRF (Cisbio) assay to determine the level of phosphorylation of the AMPK substrate, ACC, in cell lysates, as in example 1.
# [2] = tested on: AMPK containing β1 S108A (ADaM site) mutant subunit; test: pACC HTRF assay in AMPKβ1/β2 double knockout U-2 OS cells stably expressing β1 S108A mutant; type: cell-based, human; conditions: varying concentrations, 30 mins at 37 C, FIG. 2
# Description: as §1, §2, §3
smiles,measurement,setting,value
"C=C(C)[C@@H]1CCC(C)=C[C@H]1c1c(O)cc(CCCCC)cc1O [Compound 1, 2-[(1R,6R)-3-Methyl-6-(1-methylethenyl)-2-cyclohexen-1-yl]-5-pentyl-1,3-benzenediol]",phosphorylation of the AMPK substrate ACC (HTRF ratio 665/620 nm),AMPK,"increased the phosphorylation of the AMPK substrate, ACC, in a dose-dependent manner"
same,"phosphorylation of ACC (pACC), fold increase in activation",[1],able to dose-dependently increase pACC
same,"phosphorylation of ACC (pACC) / AMPK activation, fold increase in activation",[2],did not activate AMPK; also recorded: not able to increase the activity of AMPK
